Data as given in patent US20170335336A1, “USE OF A SELECTABLE MARKER GENE IN SUGAR BEET PROTOPLASTS TRANSFORMATION METHOD AND SYSTEM” (SESVanderHave N.V., priority 2014, published 2017).

Legend:
[1] = tested on: wild type sugar beet protoplasts; assay: killing curve for optimal herbicide concentration; format: cell-based, sugar beet (Beta vulgaris L.); conditions: killing curve (Table 1 and Table 2)
Protocol: The optimal herbicide (ALS inhibitor) concentration used in the method according to the invention was determined from a killing curve concentration for two preferred ALS inhibitors (Foramsulfuron and Ethoxysulfuron) and was established as follows: • To use optimal concentration of herbicide for selection of transformed sugar beet protoplasts, killing curve was developed on wild type sugar beet protoplasts with the following concentrations (Table 1 and Table 2). Based on the results obtained from the killing curve experiments concentration of 5×10^−9M for foramsulfuron and 5×10^−11M for ethoxysulfuron were selected for using with transformed sugar beet protoplasts with pS189 plasmid DNA carrying the mutated BvALS nucleotide sequence.

[2] = tested on: non-transformed protoplasts; assay: control experiment: non-transformed protoplasts on selection media; format: cell-based, sugar beet (Beta vulgaris L.)
Protocol: Transformation experiments were performed using plasmid DNA (pS189) according to the standard PEG transformation system under two selection media containing 5×10^−9M foramsulfuron (ALF) and 5×10^−11M ethoxysulfuron (ALE) concentrations. The selection of only the transformed protoplasts were evidenced by the number of calli recovered from each transformation experiment. […] So far seven transformation experiments were performed for ALF and six experiments for ALE. From ALF experiments, about 1799 buds and 89 regenerated plantlets were obtained (Table 3).

SMILES | concentration selected from killing curve experiments for selection of transformed protoplasts [1] [nM] | calli / survival of cells on selection medium ([2]; selection medium containing 5×10^−9M foramsulfuron (ALF)) | calli / survival of cells on selection medium ([2]; selection medium containing 5×10^−11M ethoxysulfuron (ALE))
COc1cc(OC)nc(NC(=O)NS(=O)(=O)c2cc(NC=O)ccc2C(=O)N(C)C)n1 [foramsulfuron] | 5 | did not result in any calli or survival of cells | 
CCOc1ccccc1OS(=O)(=O)NC(=O)Nc1nc(OC)cc(OC)n1 [ethoxysulfuron] | 0.05 |  | did not result in any calli or survival of cells
